Series [1] has as its target T1, NLRP3 (Homo sapiens, UniProt Q96P20). The series is described as follows: THP-1 cells pyroptosis assay (LPS + nigericin, resazurin readout). It counts as cell-based. Details: Seed THP-1 cells (25,000 cells/well) containing 1.0 μg/ml LPS in 40 μl of RPMI medium; host or cells: THP-1 cells. Particulars: NLRP3 inhibitory activity, 1.0 μg/ml LPS, 5 μM nigericin. The essentials: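 LPS-primed (1 μg/ml) THP-1 cells, 25,000/well in serum-free RPMI, given compound (8-point half-log, 10 μM top; 0.1% DMSO) for 3 h at 37 °C, then nigericin 5 μM for 1 h. Viability by resazurin (100 μM, 1-2 h), Ex 560/Em 590 nm; IC50 from 4-parameter variable-slope fit.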
A general note: Resazurin is reduced to fluorescent resorufin, in cell work by metabolically active cells.

Series [2] concerns the target T1, NLRP3. The series is described as follows: Human whole blood IL1β release assay (LPS + nigericin, AlphaLisa IL-1β). It counts as cell-based. On the set-up: Human whole blood in Li-heparin tubes was obtained from healthy donors from a volunteer donor panel; from tissue; host or cells: human whole blood from healthy donors. Particulars: NLRP3 inhibitory activity, 1 μg/ml LPS, 10 μM nigericin, IL-1β release, read-out: HWB IC50. Summed up:
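Donor human whole blood (Li-heparin) was primed with 1 μg/mL LPS while incubated with compound (8-point half-log, 10 μM top, 0.1% DMSO) for 3 h at 37° C., then stimulated with 10 μM nigericin for 1 h. Supernatant IL-1β measured by AlphaLISA; IC50 from 4-parameter nonlinear fit.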
(Alpha assays give light when donor and acceptor beads are brought close together.)

Series [3] is described as follows: PK protocol, intravenous administration. It counts as in vivo, male Sprague Dawley rats. Conditions: male, Sprague Dawley, rat, plasma, dose (mg/kg); for Vd: read-out: Vdss. Here is the method:
Pharmacokinetic parameters were determined in male Sprague Dawley rats (Charles River, UK, 250-350 g; or Vital River Laboratory Animal Technology Co Ltd, Beijing, China, 7-9 weeks old). Animals were individually housed during the study and maintained under a 12 h light/dark cycle. Animals had free access to food and water except that some orally dosed animals were food deprived overnight prior to the study.
For intravenous administration, compounds were formulated as a solution in water or […] in 2 mL/kg dosing volume and administered via tail vein. For oral administration, compounds were formulated as a solution in water or DMSO:water [10:90] in 5 mL/kg dosing volume and administered orally.
Serial blood samples (about 120-300 μL) were taken from each animal at each of 8 time-points post dose (0.083, 0.25, 0.5, 1, 2, 4, 8 and 24 h) or at each of 12 time-points post dose (0.03, 0.1, 0.17, 0.25, 0.5, 1, 2, 4, 6, 8, 12 and 24 h) or pre-dose and at each of 9 time-points post dose (0.25, 0.5, 1, 2, 4, 6, 8, 12 and 24 h). Samples were held on ice for no longer than 30 minutes before centrifugation (10,000 rpm (8,385 g) for 3 minutes; or 5,696 rpm (3,0009 for 15 minutes) for plasma generation. Plasma was frozen on dry ice prior to boanalysis. PK parameters were generated from LC-MS/MS data using Dotmatics or Phoenix WinNonlin 6.3 software.

This note sets out measurements from patent publication US11542255B2, “Sulfonylureas and sulfonylthioureas as NLRP3 inhibitors” (Inflazome Limited, priority 2017, dated 2023).

Molecules are shown by their SMILES. Where a name gives a salt, the structure may show the parent alone.

Broadly, the IC50 is the concentration that gives 50% inhibition. For orientation: AUC means concentration integrated over time. The clearance is the volume of plasma or blood freed of the substance per unit of time. As usually defined, the half-life is the time needed for the level to fall by half in the phase considered. A lower half-life goes with rapid decline.

T1 sequence (Q96P20 whole entry): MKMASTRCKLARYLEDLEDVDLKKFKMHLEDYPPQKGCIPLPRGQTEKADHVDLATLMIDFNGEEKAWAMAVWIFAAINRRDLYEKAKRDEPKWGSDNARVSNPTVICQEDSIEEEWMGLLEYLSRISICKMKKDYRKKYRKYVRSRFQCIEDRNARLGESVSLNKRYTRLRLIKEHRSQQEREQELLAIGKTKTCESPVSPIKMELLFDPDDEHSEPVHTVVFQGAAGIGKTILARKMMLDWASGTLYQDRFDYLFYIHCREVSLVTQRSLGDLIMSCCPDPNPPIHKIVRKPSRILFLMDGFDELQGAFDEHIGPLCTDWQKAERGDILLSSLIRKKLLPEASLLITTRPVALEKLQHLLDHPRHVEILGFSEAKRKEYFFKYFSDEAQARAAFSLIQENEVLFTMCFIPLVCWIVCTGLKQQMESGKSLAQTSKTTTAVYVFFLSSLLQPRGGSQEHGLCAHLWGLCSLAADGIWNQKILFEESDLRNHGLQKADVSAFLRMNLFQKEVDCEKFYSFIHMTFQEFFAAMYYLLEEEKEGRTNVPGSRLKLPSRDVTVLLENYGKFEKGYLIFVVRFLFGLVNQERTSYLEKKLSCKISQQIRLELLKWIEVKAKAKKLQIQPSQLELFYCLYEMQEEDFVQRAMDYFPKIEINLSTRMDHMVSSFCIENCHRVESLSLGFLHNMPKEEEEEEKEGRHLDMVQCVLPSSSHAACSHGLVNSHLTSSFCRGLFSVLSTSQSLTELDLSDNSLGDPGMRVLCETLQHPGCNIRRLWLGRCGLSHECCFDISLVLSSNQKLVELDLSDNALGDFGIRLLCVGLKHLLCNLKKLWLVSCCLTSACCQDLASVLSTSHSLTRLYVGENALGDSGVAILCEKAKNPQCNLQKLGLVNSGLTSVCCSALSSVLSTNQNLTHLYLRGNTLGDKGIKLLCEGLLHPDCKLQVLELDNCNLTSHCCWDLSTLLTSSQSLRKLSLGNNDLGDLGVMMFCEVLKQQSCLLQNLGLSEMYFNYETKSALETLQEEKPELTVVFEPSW

With `CC(c1cc(S(=O)(=O)NC(=O)Nc2c3c(cc4c2CCC4)CCC3)nn1C)N1CCC1` (single isomer, unassigned; enantiomer 2) [Example 27, 5-(1-(Azetidin-1-yl)ethyl)-N-((1,2,3,5,6,7-hexahydro-s-indacen-4-yl)carbamoyl)-1-methyl-1H-pyrazole-3-sulfonamide, Sodium Salt (Enantiomer 2)], in series [1], the IC50 was in the range of 40 to 160 nM. Besides, the IC50 in series [2] is less than 400 nM. Besides, in series [3], the exposure (AUC) worked out at 3900 ng·h/mL, the clearance worked out at 4.3 mL/min/kg, the half-life was 1.1 h and the Vd was determined as 0.33 L/kg.

Turning to `CCC(c1cc(S(=O)(=O)NC(=O)Nc2c3c(cc4c2CCC4)CCC3)nn1C)N(C)C` (single isomer, unassigned; enantiomer 2) [Example 72, 5-(1-(Dimethylamino)propyl)-N-((1,2,3,5,6,7-hexahydro-s-indacen-4-yl)carbamoyl)-1-methyl-1H-pyrazole-3-sulfonamide, Enantiomer 2], the IC50 in series [1] was less than 40 nM. Besides, the IC50 in series [2] is less than 400 nM. In addition, in series [3], the AUC amounted to 2780 ng·h/mL, the clearance was found to be 8.5 mL/min/kg, the half-life was 2.4 h and the Vd came to 0.51 L/kg.

Regarding `CN(C)CCn1nc(S(=O)(=O)NC(=O)Nc2c3c(cc4c2CCC4)CCC3)cc1CN(C)C` [Example 3, 1-(2-(Dimethylamino)ethyl)-5-((dimethylamino)methyl)-N-((1,2,3,5,6,7-hexahydro-s-indacen-4-yl)carbamoyl)-1H-pyrazole-3-sulfonamide], the IC50 in series [1] was less than 40 nM. Besides, the IC50 in series [2] was less than 400 nM. Further, in series [3], the AUC was determined as 1130 ng·h/mL, the clearance came to 37 mL/min/kg, the half-life is 1.3 h and the Vd was determined as 1.32 L/kg.

As for `CN(C)CCn1nc(S(=O)(=O)NC(=O)Nc2c3c(cc4c2CCC4)CCC3)cc1C(C)(C)O` [Example 4, 1-(2-(Dimethylamino)ethyl)-N-((1,2,3,5,6,7-hexahydro-s-indacen-4-yl)carbamoyl)-5-(2-hydroxypropan-2-yl)-1H-pyrazole-3-sulfonamide], in series [1], the IC50 lay in the range of 40 to 160 nM. In series [2], the IC50 was in the range of 400 to 800 nM. Also, in series [3], the AUC was 3780 ng·h/mL, the clearance stood at 4.4 mL/min/kg, the half-life is 1.6 h and the Vd was 0.12 L/kg.

On to `CCC(c1cc(S(=O)(=O)NC(=O)Nc2c3c(cc4c2CCC4)CCC3)nn1C1CC1)N(C)C` (stereo not shown) [Example 24, 1-Cyclopropyl-5-(1-(dimethylamino)propyl)-N-((1,2,3,5,6,7-hexahydro-s-indacen-4-yl)carbamoyl)-1H-pyrazole-3-sulfonamide], for which the IC50 in series [1] was less than 40 nM. Moreover, in series [2], the IC50 is less than 400 nM. In addition, in series [3], the AUC turned out to be 1280 ng·h/mL, the clearance worked out at 13 mL/min/kg, the half-life was 1 h and the Vd came out at 0.84 L/kg.

On to `CC(c1cc(S(=O)(=O)NC(=O)Nc2c3c(cc4c2CCC4)CCC3)nn1C1CC1)N1CCC1` (stereo not shown) [Example 25, 5-(˜(Azetidin-1-yl)ethyl)-1-cyclopropyl-N-((1,2,3,5,6,7-hexahydro-s-indacen-4-yl)carbamoyl)-1H-pyrazole-3-sulfonamide], for which, in series [1], the IC50 was less than 40 nM. Moreover, the IC50 in series [2] was less than 400 nM. Further, in series [3], the AUC came to 3460 ng·h/mL, the clearance came out at 10 mL/min/kg, the half-life is 1 h and the Vd was 0.58 L/kg.

As to `O=C(Nc1c2c(cc3c1CCC3)CCC2)NS(=O)(=O)c1cc(CN2CCC2)n(C2CC2)n1` [Example 30, 5-(Azetidin-1-ylmethyl)-1-cyclopropyl-N-((1,2,3,5,6,7-hexahydro-s-indacen-4-yl)carbamoyl)-1H-pyrazole-3-sulfonamide], in series [1], the IC50 was 40 to 160 nM. The IC50 in series [2] was 400 to 800 nM. In series [3], the AUC worked out at 6210 ng·h/mL, the clearance was 2.7 mL/min/kg, the half-life was 2.8 h and the Vd was 0.53 L/kg.

As to `Cn1nc(S(=O)(=O)[N-]C(=O)Nc2c3c(cc4c2CCC4)CCC3)cc1C[N+](C)(C)C` [Example 44, ((1,2,3,5,6,7-Hexahydro-s-indacen-4-yl)carbamoyl)((1-methyl-5-((trimethylammonio)methyl)-1H-pyrazol-3-yl)sulfonyl)amide], the IC50 in series [1] lay within 640 to 2560 nM. For the same compound, the IC50 in series [2] was less than 400 nM. In series [3], the AUC is 3120 ng·h/mL, the clearance is 5.3 mL/min/kg, the half-life was 1.2 h and the Vd turned out to be 0.21 L/kg.

Consider `CCn1nc(S(=O)(=O)NC(=O)Nc2c3c(cc4c2CCC4)CCC3)cc1CN1CCC1` [Example 49, 5-(Azetidin-1-ylmethyl)-1-ethyl-N-((1,2,3,5,6,7-hexahydro-s-indacen-4-yl)carbamoyl)-1H-pyrazole-3-sulfonamide], for which, in series [1], the IC50 is 40 to 160 nM. The IC50 in series [2] is less than 400 nM. Also, in series [3], the AUC was determined as 6630 ng·h/mL, the clearance worked out at 2.7 mL/min/kg, the half-life was 2.2 h and the Vd turned out to be 0.34 L/kg.

Consider `CCn1nc(S(=O)(=O)NC(=O)Nc2c3c(cc4c2CCC4)CCC3)cc1CN(C)C` [Example 52, 5-((Dimethylamino)methyl)-1-ethyl-N-((1,2,3,5,6,7-hexahydro-s-indacen-4-yl)carbamoyl)-1H-pyrazole-3-sulfonamide], for which the IC50 in series [1] was less than 40 nM. Moreover, in series [2], the IC50 was less than 400 nM. In addition, in series [3], the AUC worked out at 7970 ng·h/mL, the clearance was 3.5 mL/min/kg, the half-life is 1.5 h and the Vd was determined as 0.39 L/kg.

Take `CC(C)Oc1cc(-c2cc(F)cc(C(C)C)c2NC(=O)NS(=O)(=O)c2cc(C(=O)N(C)C)n(C)n2)ccn1` [Example 176, 3-(N-((4-Fluoro-2-(2-isopropoxypyridin-4-yl)-6-isopropyl-phenyl)carbamoyl)sulfamoyl)-N,N,1-trimethyl-1H-pyrazole-5-carboxamide, sodium salt]: the IC50 in series [1] was in the range of 160 to 640 nM; in series [2] it was 1600 to 3200 nM.

With `COc1cc(-c2ccc3c(c2NC(=O)NS(=O)(=O)c2cc(C(=O)N(C)C)n(C)n2)CCC3)ccn1` [Example 177, 3-(N-((5-(2-Methoxypyridin-4-yl)-2,3-dihydro-1H-inden-4-yl)carbamoyl)sulfamoyl)-N,N,1-trimethyl-1H-pyrazole-5-carboxamide, sodium Salt], the IC50 is less than 40 nM in series [1] and less than 400 nM in series [2].

For `CNCc1cc(S(=O)(=O)NC(=O)Nc2c(-c3ccnc(OC)c3)ccc3c2CCC3)nn1C1CC1` [Example 178], the IC50 in series [1] is 40 to 160 nM; in series [2], less than 400 nM.

`COc1cc(-c2ccc3c(c2NC(=O)NS(=O)(=O)c2cc(C4CCCN4C)n(C(C)C)n2)CCC3)ccn1` (stereo not shown) [Example 179]: the figures for the IC50 in series [1] and in series [2] were 40 to 160 nM and 800 to 1600 nM, respectively.

For `CCC(c1cc(S(=O)(=O)NC(=O)Nc2c(-c3ccnc(OC)c3)ccc3c2CCC3)nn1C(C)C)N(C)C` (stereo not shown) [Example 180], the IC50 was 40 to 160 nM in series [1] and less than 400 nM in series [2].

On to `COc1cc(-c2ccc3c(c2NC(=O)NS(=O)(=O)c2cc(CN(C)C)n(C(C)C)n2)CCC3)ccn1` [Example 181], for which the figures for the IC50 in series [1] and in series [2] were less than 40 nM and less than 400 nM, respectively.

Turning to `CNCc1cc(S(=O)(=O)NC(=O)Nc2c3c(cc4c2CCC4)CCC3)nn1C1CC1` [Example 183], the IC50 lay in the range of 40 to 160 nM in series [1] and 400 to 800 nM in series [2].

As for `CCn1nc(S(=O)(=O)NC(=O)Nc2c3c(cc4c2CCO4)CCC3)cc1CN(C)C` [Example 184], the IC50 is less than 40 nM in series [1] and 400 to 800 nM in series [2].

In the case of `CCn1nc(S(=O)(=O)NC(=O)Nc2c3c(cc4c2OCC4)CCC3)cc1CN(C)C` [Example 185], the IC50 lay within 160 to 640 nM in series [1] and 1600 to 3200 nM in series [2].

For the compound `CC(C)n1nc(S(=O)(=O)NC(=O)Nc2c3c(cc4c2CCC4)CCC3)cc1C1CCCN1C` (stereo not shown) [Example 186], the IC50 in series [1] was less than 40 nM; in series [2], 400 to 800 nM.

Consider `CC(C)n1nc(S(=O)(=O)NC(=O)Nc2c3c(cc4c2CCC4)CCC3)nc1CN(C)C` [Example 187], for which the results for the IC50 in series [1] and in series [2] were less than 40 nM and 800 to 1600 nM, respectively.
